According to patent publication US10550095B2, “Cancerous cell growth inhibiting compounds” (WISYS TECHNOLOGY FOUNDATION, INC., priority 2016, dated 2020):
Where “and” joins values, the source holds several entries; their conditions need not be identical. Equal values may be shown once. Entries after “also recorded” stand apart in the source; their conditions may differ.

Tests used:
zebrafish embryos [1] = experiment: Skin Lightening Efficacy of All Analogs on Zebrafish Embryos (Table 1); assay type: in vivo
Method: (§1) The testing protocols for these compounds are as follows: • a. […] The embryos were monitored and imaged throughout their development to track the development of melanin pigment relative to a control group to which water was administered (Protocol 1). • b. […] The embryos were again monitored and imaged throughout their development relative to a control group to which water was administered (Protocol 2). • c. Additionally, to test the ability of the pigment to recover after being treated with our drugs, all embryos were treated at 24 hpf with the chemicals until the 48 hpf or 64 hpf time period, then washed with water to remove the treatment. The embryos were again monitored and imaged throughout their development relative to a control group to which water was administered (Protocol 3).
(§2) The black pigment (or melanin) is very easy to observe in zebrafish. In brief, adult zebrafish are taken to breed embryos. Morphologically normal embryos of 24 hours post fertilization (hpf) stage were selected for incubation in the drugs from 24 to 76 hours. During the incubation, the embryos are monitored and imaged (see FIGS. 1 and 3) to track the development of melanin. […] To broaden the comparison with other skin-whitening products, this project can also test at least three other compounds, Kojic acid, Gallic acid and Haginin. […] In the meantime, the whole organism context also allows us to examine the toxicological profile, if any, of these compounds.

B16-F10 melanoma cells [2] = experiment: cells; assay type: cell-based
B16-F10 melanoma cells [3] = experiment: Melanin in melanoma cells; assay type: cell-based, mouse; details: for Melanin: melanoma cells
Excerpt: (MEK-I is a known MEK inhibitor as a comparison purchased from Sigma): […]

zebrafish embryos [4] = experiment: Inhibition of melanin synthesis in zebrafish embryos, treated 24-76 hpf (Protocol 1); assay type: in vivo; details: for pigmentation in comparison to the control group: zebrafish embryos treated 24 to 76 hpf
Method: as §1, §2

MITF [5] = experiment: Western blot for MITF protein level in B16-F10 cells; assay type: cell-based, mouse; details: western blot vs DMSO control (FIG. 21)
Excerpt: (§3) To understand how A11 inhibits melanoma proliferation, we examined the MITF expression level in A11-treated B16-F10 cells by western blot and RT-qPCR.

Pax3 = experiment: RT-qPCR of Pax3 in melanoma cells; assay type: cell-based, mouse
Excerpt: as §3
(§4) The results of several qPCR experiments using melanoma cells were compiled in FIG. 20. Pax3 and sox10 are genes determine the melanocyte precursors while mit-f is the specific transcription factor that initiates melanocyte differentiation. Dct and tyr genes are expressed in differentiated melanocytes. […] The decrease in magnitude is not significant likely due to the very heterogeneous cell types in melanoma.

zebrafish embryos [6] = experiment: Toxicity in developing zebrafish embryos
Method: as §2

[7] = tested on: DCT (dopachrome tautomerase); experiment: RT-qPCR of DCT in melanoma cells; assay type: cell-based, mouse
Excerpt: as §3, §4

tyrosinase = experiment: RT-qPCR of tyrosinase in melanoma cells; assay type: cell-based, mouse
Excerpt: as §3, §4

MITF [8] = experiment: RT-qPCR of MITF (mit-f) in melanoma cells; assay type: cell-based, mouse
Excerpt: as §3, §4

zebrafish embryos [9] = experiment: Effect on existing melanin and/or melanocytes, embryos treated at 48 hpf (Protocol 2); assay type: in vivo
Method: (§5) The testing protocols for these compounds are as follows: • a. […] The embryos were monitored and imaged throughout their development to track the development of melanin pigment relative to a control group to which water was administered (Protocol 1). • b. To test the effects of the drugs on existing melanin and/or melanocytes, the embryos were treated with the chemicals at 48 hpf, after pigment had developed. The embryos were again monitored and imaged throughout their development relative to a control group to which water was administered (Protocol 2). • c. Additionally, to test the ability of the pigment to recover after being treated with our drugs, all embryos were treated at 24 hpf with the chemicals until the 48 hpf or 64 hpf time period, then washed with water to remove the treatment. The embryos were again monitored and imaged throughout their development relative to a control group to which water was administered (Protocol 3).
To test the effects of the drugs on existing melanin and/or melanocytes, the embryos were treated with the chemicals A11, MEK-I and PTU at 48 hpf, after pigment had developed. The embryos were again monitored and imaged throughout their development according to Protocol 2.

zebrafish embryos [10] = experiment: Pigment recovery after compound withdrawal (Protocol 3); assay type: in vivo; details: treated 24-48 hpf or 24-64 hpf, then washed; by 72 hpf
Method: as §5
It has been reported that melanin usually reappears after the withdrawal of skin whitening products. […] The pigmentation was monitored closely for 48-72 hours. Similarly, this experiment was repeated at least three times to gain a reproducible result.

MAPK = experiment: Western blot for phosphorylated MAPK in melanoma cells; assay type: cell-based, mouse; details: melanoma cells (FIG. 19A)
Excerpt: We wanted to further understand the molecular mechanism of A11 and its derivatives by examining the activities of MAPK, Akt, and PRPP pathways which regulate cell proliferation and cell death.
MAPK is involved in the major cell proliferation signaling pathway. In many cancer cells, MAPK is activated at high level by phosphorylation. Using the anti-phosphorylated-MAPK (p-MAPK) on western blot, it is very easy to understand the proliferation ability in cells. […] While the results are against our hypothesis and current understanding, it raises a very interesting mechanism of A11 which requires further investigation. […] The current understanding is that activated MAPK and Akt both lead to cell proliferation.

MEK = MEK activity (FIG. 12)
Excerpt: FIG. 12 are photo illustrations of MEK activity with exemplary embodiments of the human drug treatments of the present invention; and
(§6) The intracellular signaling pathway that involves Raf and MEK is known to be the major pathway to regulate cell proliferation. Many current melanoma drugs such as cobimetinib works by inhibiting Raf or MEK. While they are effective in inhibiting melanoma growth, they exert different degrees of side effect on normal cells by inhibiting the Raf-MEK pathway. […] Also, with regard to FIG. 13, the compound SK-03-92 is shown to inhibit melanoma cell growth by approximately 10% at 10 μM and at 100% at 40 μM.

[11] = tested on: transgenic melanoma zebrafish embryos; experiment: Melanoma formation and recovery in transgenic melanoma zebrafish embryos; assay type: in vivo
Method: as §6

COc1cc(O)cc(/C=C/Oc2cccc(OC)c2)c1 [Analog A8]
Pigmentation (zebrafish embryos [1]; concentration not given): 10%

COc1cc(O)cc(/C=C/Oc2cccc(C)c2)c1 [Analog A9]
Average Melanoma growth (from the previous chart) (B16-F10 melanoma cells [2]; 10 μM): 78% | Average Melanoma growth (from the previous chart) (B16-F10 melanoma cells [2]; 40 μM): 76% | Growth (B16-F10 melanoma cells [2]; melanoma cells, 10 μM): 78% | Growth (B16-F10 melanoma cells [2]; melanoma cells, 40 μM): 76% | Melanin (B16-F10 melanoma cells [3]; 10 μM): 101% | Melanin (B16-F10 melanoma cells [3]; 40 μM): 96% | Pigmentation (zebrafish embryos [1]; concentration not given): 10%

OC[C@H]1O[C@@H](Oc2ccc(O)cc2)[C@H](O)[C@@H](O)[C@@H]1O [Arbutin]
pigmentation in comparison to the control group (zebrafish embryos [4]; 100 μM): 30%

COc1cc(O)cc(/C=C/Oc2ccccc2)c1 [CL1]
Pigmentation (zebrafish embryos [1]; 40 uM): 0% (40 uM)

COc1cc(/C=C/Oc2ccccc2)cc(OC)c1 [CL2]
Pigmentation (zebrafish embryos [1]; concentration not given): 5%

COc1cc(O)cc(/C=C/Sc2ccccc2)c1 [CL4]
Average Melanoma growth (from the previous chart) (B16-F10 melanoma cells [2]; 10 μM): 93% | Growth (B16-F10 melanoma cells [2]; melanoma cells, 10 μM): 93% | Melanin (B16-F10 melanoma cells [3]; 10 μM): 107% | Pigmentation (zebrafish embryos [1]; concentration not given): 0%

COc1cc(O)cc(/C=C/c2cccs2)c1 [CL6]
Pigmentation (zebrafish embryos [1]; concentration not given): 0%

N#CC(=C(N)Sc1ccccc1N)C(C#N)=C(N)Sc1ccccc1N [MEK-I, reference compound]
MITF protein level (in words) (MITF [5]): high level of MITF | Average Melanoma growth (from the previous chart) (B16-F10 melanoma cells [2]; 10 μM): 67% | Average Melanoma growth (from the previous chart) (B16-F10 melanoma cells [2]; 20 μM): 35% | Growth (B16-F10 melanoma cells [2]; melanoma cells, 10 μM): 72% and 62% | Pax3 expression (in words) (Pax3): increases Pax3 transcription | toxicity in embryos (in words) (zebrafish embryos [6]; developing zebrafish embryos): various levels of toxicity; also recorded: Notocord toxicity is present | Melanin (B16-F10 melanoma cells [3]; 10 μM): 104% and 78% and 94% | Melanin (B16-F10 melanoma cells [3]; 20 μM): 82% and 84% | DCT expression (in words) [7]: decreased | tyrosinase expression (in words) (tyrosinase): decreased | MITF (mit-f) mRNA expression (in words) (MITF [8]): no effect on the MITF transcription | Pigmentation (zebrafish embryos [4]; zebrafish embryos treated 24-76 hpf, 10 μM): 60% | effect on existing pigment (in words) (zebrafish embryos [9]): has no effect; also recorded: ineffective | pigmentation recovered after wash-off (zebrafish embryos [10]): 100% | amount of p-MAPK / MAPK activity (in words) (MAPK): effectively suppresses the amount of p-MAPK

NC(=O)c1cccnc1 [Niacinamide]
pigmentation in comparison to the control group (zebrafish embryos [4]; 1%): 10%

NC(=S)Nc1ccccc1 [PTU, phenylthiourea, reference compound]
Average Melanoma growth (from the previous chart) (B16-F10 melanoma cells [2]; concentration not given): 107% | Growth (B16-F10 melanoma cells [2]; melanoma cells, concentration not given): 87% and 107% and 128% and 106% | toxicity in embryos (in words) (zebrafish embryos [6]; developing zebrafish embryos): various levels of toxicity | Melanin (B16-F10 melanoma cells [3]; concentration not given): 59% and 67% and 89% and 64% | pigmentation inhibition (in words) (zebrafish embryos [4]; zebrafish embryos treated 24-76 hpf): nearly complete pigmentation loss | Pigmentation (zebrafish embryos [4]; zebrafish embryos treated 24-76 hpf, 0.003%): 10% | effect on existing pigment (in words) (zebrafish embryos [9]): remove existing pigment | existing pigment remaining (zebrafish embryos [9]): 20% | pigmentation recovered after wash-off (zebrafish embryos [10]): 100%

COc1cc(O)cc(/C=C/c2cc3ccccc3s2)c1 [SK0392, (E)-3-(2-(Benzo[b]thiophen-2-yl)vinyl)-5-methoxyphenol]
Average Melanoma growth (from the previous chart) (B16-F10 melanoma cells [2]; 10 μM): 100% | inhibition at 10 µM (B16-F10 melanoma cells [2]; Mus musculus, B16-F10, 10 μM (FIG. 13), read-out: inhibition of melanoma cell growth): ~10% | inhibition at 40 µM (B16-F10 melanoma cells [2]; Mus musculus, B16-F10, 40 μM (FIG. 13), read-out: inhibition of melanoma cell growth): 100% | inhibition of melanoma cell growth / cell number (in words) (B16-F10 melanoma cells [2]; melanoma cells): decrease of melanin as well as the cell number | Growth (B16-F10 melanoma cells [2]; melanoma cells, 10 μM): 100% | toxicity in embryos (in words) (zebrafish embryos [6]; zebrafish, in vivo): almost no detectable toxicity | Melanin (B16-F10 melanoma cells [3]; 10 μM): 97% | melanin in B16-F10 cells (in words) (B16-F10 melanoma cells [3]; mouse cell line B16-F10): decrease of melanin | Pigmentation (zebrafish embryos [1]; 50 uM): 20% (50 uM) | MEK activity (in words) (MEK): increasing MEK activity | formation and recovery of melanoma (in words) [11]: inhibited the formation and recovery of melanoma

COc1cc(O)cc(/C=C/Sc2ccccc2C(C)C)c1 [SK0501]
Pigmentation (zebrafish embryos [1]; concentration not given): 0%

COc1ccc(S/C=C/c2cc(O)cc(OC)c2)cc1 [SK0503]
Pigmentation (zebrafish embryos [1]; concentration not given): 0%

COc1cc(O)cc(/C=C/n2ccc(C(F)(F)F)n2)c1 [SK0951]
Pigmentation (zebrafish embryos [1]; concentration not given): 0%

COc1cc(O)cc(/C=C/n2ccc3ccccc32)c1 [SK0953]
Average Melanoma growth (from the previous chart) (B16-F10 melanoma cells [2]; 20 μM): 71% | Growth (B16-F10 melanoma cells [2]; melanoma cells, 20 μM): 71% | Melanin (B16-F10 melanoma cells [3]; 20 μM): 96% | Pigmentation (zebrafish embryos [1]; concentration not given): 0%

COc1cc(O)cc(/C=C/n2ncc3ccccc32)c1 [SK0954]
Pigmentation (zebrafish embryos [1]; concentration not given): 0%

CC1=C(/C=C/C(C)=C/C=C/C(C)=C/C(=O)O)C(C)(C)CCC1 [Tretinoin]
pigmentation in comparison to the control group (zebrafish embryos [4]; 0.1%): 80%
